According to paper PMC5634595, “Properties of halogenated and sulfonated porphyrins relevant for the selection of photosensitizers in anticancer and antimicrobial therapies” (PLoS ONE, 2017):

Tests used:
S. aureus (8325–4) = assay: Photodynamic inactivation of microorganisms, CFU; type: cell-based; details: 20 μM, 10 min irradiation (10 J/cm^2, 420±20 nm)
Procedure: (§1) The microorganisms used in PDI were: S. aureus (8325–4), E. faecalis (ATCC29212), E. coli (K12), P. aeruginosa (ATCC19660), S. marcescens (ATCC14756) and C. albicans (DAY286). The planctonic bacteria cells were cultured in brain heart infusion broth (Sigma-Aldrich) and LB Broth/Lennox (BioShop Lab Science Products) in an orbital incubator (37°C, 130 rpm), until the optical density reached 0.5, which corresponds to approximately 10^7 CFU per mL. The fungal yeasts were cultured in YPD Broth (BioShop) with overnight aeration at 30°C to reach ca. 10^6 CFU/mL. For PDI experiments cell suspensions of bacteria or fungal yeasts were incubated with various concentrations of the porphyrins at pH 7.4 (PBS) for 1 h in the dark at room temperature. Aliquots (1 mL) were transferred to a 12-well plate and illuminated with a blue light. We used blue-LED array (420±20 nm) to deliver a light dose of 10 J/cm^2 (measured with a power meter). Cells treated with photosensitizers in the dark were incubated covered with aluminum foil for the same time as the PDI groups (1 h). After illumination (or dark incubation) samples were shaken, diluted in PBS, mixed and plated (LB agar). Aliquots were taken from each well to determine the CFU value. Plates were streaked in triplicate and incubated for 12–36 h at 30 °C (for fungal yeasts) or 37 °C (for bacteria) in the dark to allow colony formation.

[1] = tested on: P. aeruginosa (ATCC19660); assay: Photodynamic inactivation of microorganisms, CFU; type: cell-based; details: PDI 10 J/cm^2, 420±20 nm, concentration not given
Procedure: as §1

E. coli (K12) = assay: Photodynamic inactivation of microorganisms, CFU; type: cell-based; details: PDI 10 J/cm^2, 420±20 nm, concentration not given
Procedure: as §1

[2] = Dynamic light scattering and zeta potential of PS-Pluronic L121 micelles; type: physicochemical; details: Pluronic L121-based formulation, DLS, homogeneous distribution
Procedure: Micellar formulations with Pluronic […] were prepared according to a method recently described. The micelles were characterized by Dynamic Light Scattering (DLS) using a Malvern Zetaziser Nano ZS system. The apparent diffusion coefficients of the micelles were obtained from the normalized time correlation function of the scattered electric field, g(1)(τ), using the cumulants analysis. An average value was obtained from repeated measurements for each sample (N = 3).

[3] = Singlet oxygen quantum yield by phosphorescence at 1270 nm; type: physicochemical; details: EtOH, phenalenone as reference
Procedure: Fluorescence emission spectra were recorded from 550 nm to 750 nm with excitation at Soret band (λ≈420 nm). The excitation and emission slits were both set to 8 nm and scanning speed to 50 nm/min. Fluorescence spectra were recorded with a Perkin Elmer Fluorescence Spectrometer LS 55. Determination of fluorescence quantum yields: ΦF of studied photosensitizers was determined using the comparative method according to the equation: ΦF=ΦFStd⋅FAStdn^2/FStdAnStd2, (1) where F and FStd are the areas under the fluorescence emission curves of the sample and the standard, A and AStd are the absorbance of the sample and the standard and n are the refractive indices of the solvent used for the sample and the standard, respectively. Commercially available tetraphenylporphyrin TPP (Std) (ΦF = 0.10 in toluene) was employed as the standard. The absorbance of the solutions at the excitation wavelength was in the range of 0.02. Singlet oxygen quantum yields were determined based on the relative phosphorescence emissions of singlet oxygen generated by a reference and by each one of the porphyrins, using a method described elsewhere. Briefly, a modified Applied Photophysics LKS.60 flash photolysis spectrometer with a Hamamatsu NIR photomultiplier for detection and HP Infinium (500 MHz, 1GSas^-1) or Tektronix DPO 7254 (2.5 GHz, 40GSas^-1) oscilloscopes were used. The adaptation of this spectrometer allowed for the detection of singlet oxygen phosphorescence at room temperature. This emission was detected using a Hamamatsu R5509–42 photomultiplier, cooled to 193 K in a liquid nitrogen chamber. […] The modification of the spectrometer for time-resolved singlet oxygen phosphorescence measurements involved the interposition of a Melles Griot cold mirror (03MCS005), which reflects more than 99% of the incident light in the 400–700 nm range, and of a Scotch RG665 filter. A 600 line diffraction grating was mounted in place of a standard one. […] Solutions of photosensitizers were prepared with matched absorbances close to 0.2 at 355 nm. […]

[4] = UV/Vis absorption spectra, molar absorption coefficients; type: physicochemical; details: EtOH
Procedure: All commercial chemicals and reagents were of analytical grade and were purchased from Sigma-Aldrich. UV/Vis absorption spectra were recorded in a Hewlett Packard HP8453 spectrophotometer. Solutions containing samples of photosensitizers were dissolved in the selected solvent in quartz cuvettes. Using measured absorbance for various concentrations of porphyrin in ethanol, the molar absorption coefficients were determined from Beer’s law.

O=S(=O)(O)c1ccc(F)c(-c2c3nc(c(-c4c(F)ccc(S(=O)(=O)O)c4F)c4ccc([nH]4)c(-c4c(F)ccc(S(=O)(=O)O)c4F)c4nc(c(-c5c(F)ccc(S(=O)(=O)O)c5F)c5ccc2[nH]5)C=C4)C=C3)c1F [F2POH, 5,10,15,20-tetrakis(2,6-difluoro-3-sulfophenyl)porphyrin]
Reduction in colony forming units (CFU) (S. aureus (8325–4)): 6 logs
Decrease in survival / bacteria CFU killing [1]: 1.5–2 logs
Decrease in survival (E. coli (K12)): 1.5–2 logs
Particle Diameter (hydrodynamic diameter) [2]: ca. 115 nm
Singlet oxygen quantum yield ΦΔ [3]: 0.71
Absorption λmax, Qx (0,1) [4]: 584 nm
Absorption λmax, Qx(0,0) [4]: 638 nm
Absorption λmax, Qy (0,0) [4]: 532 nm
Absorption λmax, Qy (0,1) [4]: 508 nm
Absorption λmax, B(0,0) ([4]; Soret band): 420 nm
